Laboratory results taken from US8293734B2, “Nitroimidazooxazine and nitroimidazooxazole analogues and their uses” (priority 2009, dated 2012).
In brackets after ≈: the same amount, converted by molar mass. Where two headings read alike, the source gives them in different places.

Key:
[1] = test system: replicating Mycobacterium tuberculosis; assay: MABA microplate Alamar blue assay, MIC (aerobic); assay type: cell-based; conditions: 192 h
[2] = test system: Axenically grown L. donovani amastigotes (MHOM-ET-67/L82); assay: Axenic Leishmania donovani assay; assay type: cell-based; conditions: 70 h incubation, read-out: IC50 L. donovani axen
Method: (§1) (c) Antiprotozoal screening. Compounds were evaluated for their activities against both Trypanosoma cruzi amastigotes and Leishmania donovani amastigotes (free or encapsulated in macrophages), according to the following protocols:
(ii) Axenic Leishmania donovani assay. Axenically grown L. donovani amastigotes (MHOM-ET-67/L82) from a healthy culture in log phase were seeded at a density of 1×10^6/mL medium (SM, pH 5.4 plus 10% heat inactivated fetal calf serum) in 96-well microtitre plates (Costar™) and incubated at 37° C. (5% CO2) for 70 h in either medium alone or in the presence of serial (3-fold) dilutions of test compounds (initially prepared as 10 mg/mL stock solutions in DMSO and diluted into medium). Miltefosin was employed as a standard in each assay. After incubation, Resazurin fluorescent dye was added to each well, and incubation was continued for an additional 2 h. The IC50 values were determined from measurements of the fluorescence data.

[3] = test system: L. donovani amastigotes (MHOM-ET-67/L82) in mouse macrophages; assay: Leishmania donovani infected macrophage assay; assay type: cell-based; conditions: 96 h incubation, read-out: IC50 L. donovani macro
Method: as §1
(iii) Leishmania donovani infected macrophage assay. Freshly harvested mouse macrophages in medium (RPMI 1640 plus 10% heat inactivated fetal calf serum) were incubated at 37° C. (5% CO2) for 24 h and then infected (1:3 macrophages to amastigotes) with an axenic L. donovani amastigote culture (MHOM-ET-67/L82) in medium (SM, pH 5.4 plus 10% heat inactivated fetal calf serum). The infected macrophages were seeded at a density of 1.2×10^6/mL (by diluting in RPMI+10% FCS) in 16-well slides (Lab-tek™) and incubated at 37° C. (5% CO2) for 24 h. The medium was removed and replaced by fresh medium (RPMI 1640+10% FCS), and this was repeated following mixing. The infected macrophages were then incubated at 37° C. (5% CO2) for 96 h in either medium alone or in the presence of serial (3-fold) dilutions of test compounds (initially prepared as 10 mg/mL stock solutions in DMSO and diluted into medium). Miltefosin was employed as a standard in each assay. […], the slides were fixed (5 min in 100% MeOH) and stained (10% Giemsa, 10 min). The ratio of infected to uninfected macrophages was determined by microscopic examination, and the IC50 values were then calculated by linear regression analysis.

[4] = test system: Trypanosoma cruzi amastigotes (Tulahuen C2C4 strain); assay: Trypanosoma cruzi assay in infected L-6 cells; assay type: cell-based; conditions: L6, 96 h incubation, read-out: IC50 T. cruzi
Method: as §1
(i) Trypanosoma cruzi assay. L-6 cells (2×10^3) in medium (100 μL of RPMI 1640 supplemented with 2 mM L-glutamine plus 10% heat inactivated fetal calf serum) were seeded in 96-well microtitre plates (Costar™) and incubated at 37° C. (5% CO2) for 1d. A suspension (50 μL) of Trypanosoma cruzi trypomastigotes (5×10^3 of Tulahuen C2C4 strain, containing the β-galactosidase gene) was added, and the cells were incubated at 37° C. (5% CO2) for a further 48 h to establish the infection. The medium was removed and replaced by fresh medium and the infected cells were then incubated at 37° C. (5% CO2) for 96 h in either medium alone or in the presence of serial (3-fold) dilutions of test compounds (initially prepared as 10 mg/mL stock solutions in DMSO and diluted into medium). Benznidazole was employed as a standard in each assay. Following incubation, chlorophenol red glycoside (100 mM) in 0.1% Nonidet P40/PBS (50 μL) was added, and (after 6 h) the absorbance at 540 nm was measured and used to calculate the IC50 values.

[5] = test system: M. tuberculosis bacteria in the non-replicating state; assay: LORA low-oxygen-recovery assay, MIC (anaerobic); assay type: cell-based; conditions: Mycobacterium tuberculosis, 264 h; 11 day luminescence-based low-oxygen-recovery assay
VERO cells (CCL-81) = assay: Mammalian cell cytotoxicity assay (tetrazolium dye); assay type: cell-based; conditions: Chlorocebus sabaeus, read-out: IC50 VERO
Method: (b) Mammalian cell cytotoxicity assay. This was assessed against VERO cells (CCL-81, American Type Culture Collection) in a 72 h exposure, using a tetrazolium dye assay (Falzari et al., 2005).

M. tuberculosis Erdman = assay: In vivo mouse acute TB infection assay; parameters: species or system BALB/c mice; conditions: for In vivo efficacy vs PA-824: 100 mg/kg orally daily 5 days a week for 3 weeks, ratio of average lung CFU reduction to that of PA-824
[6] = Stability to human liver microsomes; assay type: in vitro ADME; conditions: 1 μM compound, 60 min, 37° C., 0.5 mg/mL protein
Method: (a) Stability of the compounds to human and mouse microsomes. Test compounds (1 μM) were incubated at 37° C. with pooled human or CD-1 mouse liver microsome preparations (0.5 mg/mL final protein concentration) and an NADPH regenerating system (MgCl2, 3.3 mM; G6P, 3.3 mM; G6PD, 0.4 U/mL; NADP+, 1.3 mM) in phosphate buffer (75 mM, pH 7.4), with a final volume of 200 μL. The compounds were dissolved in DMSO such that the final DMSO concentration was 0.5%. Reactions were stopped at 0 and 60 min by the addition of MeCN (100 μL) containing 0.2 μM metoprolol as an internal standard. Samples were diluted 10× and centrifuged prior to analysis by LC-MS/MS using electrospray ionization and SRM monitoring using a gradient LC method. LC peak areas were integrated and expressed as analyte/IS peak area ratios (PAR), and a mean value for each time point was calculated from the duplicates. The percent remaining value was calculated as: % remaining=100×(Mean PART60/Mean PART0).

| Compound | MIC [1] [µM] | IC50 [2] [µg/mL] | IC50 [3] [µg/mL] | melting point [°C] | IC50 [4] [µg/mL] | MIC [5] [µM] | IC50 (VERO cells (CCL-81); 72 h exposure) [µM] | In vivo efficacy vs PA-824 (M. tuberculosis Erdman) | IC50 (VERO cells (CCL-81); 72 h) [µM] | log reductions in CFU (M. tuberculosis Erdman; lungs, vs vehicle alone-treated mice, day 31, 'up to') | Microsomes (% remaining) Human [6] [%] |
| --- | --- | --- | --- | --- | --- | --- | --- | --- | --- | --- | --- |
| CC1(COc2ccc(OCc3ccccc3)cc2)Cn2cc([N+](=O)[O-])nc2O1 (stereo not drawn) [Compound 7, 2-{[4-(benzyloxy)phenoxy]methyl}-2-methyl-6-nitro-2,3-dihydroimidazo[2,1-b][1,3]oxazole] | 0.53 (≈ 0.202 µg/mL) | 0.016 (≈ 0.042 µM) | 0.4 (≈ 1.05 µM) | 162 to 165 | 3.2 (≈ 8.39 µM) | 24 (≈ 9.15 µg/mL) | – | – | – | – | – |
| COc1ccc(-c2ccc(OCC3(C)Cn4cc([N+](=O)[O-])nc4O3)cc2)cn1 (stereo not drawn) [Compound 8, 2-{[4-(6-methoxy-3-pyridinyl)phenoxy]methyl}-2-methyl-6-nitro-2,3-dihydroimidazo[2,1-b][1,3]oxazole] | 0.04 (≈ 0.0153 µg/mL) | 0.017 (≈ 0.0445 µM) | 0.38 (≈ 0.994 µM) | 217 to 219 | 4.1 (≈ 10.7 µM) | 14 (≈ 5.35 µg/mL) | > 128 | – | – | – | – |
| CC1(COc2ccc(-c3ccc(C#N)cc3)cc2)Cn2cc([N+](=O)[O-])nc2O1 (stereo not drawn) [Compound 9, 4′-[(2-methyl-6-nitro-2,3-dihydroimidazo[2,1-b][1,3]oxazol-2-yl)methoxy][1,1′-biphenyl]-4-carbonitrile] | 0.04 (≈ 0.0151 µg/mL) | 0.016 (≈ 0.0425 µM) | 0.2 (≈ 0.531 µM) | 180 to 181 | 1.2 (≈ 3.19 µM) | 3.7 (≈ 1.39 µg/mL) | > 128 | – | – | – | – |
| CC1(COc2ccc(-c3ccc(OC(F)(F)F)cc3)cc2)Cn2cc([N+](=O)[O-])nc2O1 (stereo not drawn) [Compound 12, 2-methyl-6-nitro-2-({[4′-(trifluoromethoxy)[1,1′-biphenyl]-4-yl]oxy}methyl)-2,3-dihydroimidazo[2,1-b][1,3]oxazole] | – | 0.016 (≈ 0.0368 µM) | 0.74 (≈ 1.7 µM) | 209 to 211 | 9.4 (≈ 21.6 µM) | – | > 128 | 112 | – | – | – |
| CC1(COCc2ccc(OC(F)(F)F)cc2)Cn2cc([N+](=O)[O-])nc2O1 (stereo not drawn) [Compound 25, 2-methyl-6-nitro-2-({[4-(trifluoromethoxy)benzyl]oxy}methyl)-2,3-dihydroimidazo[2,1-b][1,3]oxazole] | – | 0.029 (≈ 0.0777 µM) | 0.22 (≈ 0.589 µM) | 110 to 111 | 0.24 (≈ 0.643 µM) | – | > 128 | 0.025 | – | – | – |
| CC1(COCc2ccc(OCc3ccccc3)cc2)Cn2cc([N+](=O)[O-])nc2O1 (stereo not drawn) [Compound 26, 2-({[4-(benzyloxy)benzyl]oxy}methyl)-2-methyl-6-nitro-2,3-dihydroimidazo[2,1-b][1,3]oxazole] | 0.3 (≈ 0.119 µg/mL) | 0.013 (≈ 0.0329 µM) | 0.36 (≈ 0.91 µM) | 130 to 131 | 0.34 (≈ 0.86 µM) | 50 (≈ 19.8 µg/mL) | > 128 | – | – | – | – |
| O=[N+]([O-])c1cn2c(n1)OC(COCc1cccc(OC(F)(F)F)c1)CC2 (stereo not drawn) [Compound 47, 2-nitro-7-({[3-(trifluoromethoxy)benzyl]oxy}methyl)-6,7-dihydro-5H-imidazo[2,1-b][1,3]oxazine] | 3.8 (≈ 1.42 µg/mL) | 0.041 (≈ 0.11 µM) | 0.084 (≈ 0.225 µM) | 100 to 112 | 1.1 (≈ 2.95 µM) | 15 (≈ 5.6 µg/mL) | – | – | – | – | – |
| O=[N+]([O-])c1cn2c(n1)OC(COCc1cccc(-c3ccc(OC(F)(F)F)cc3)c1)CC2 (stereo not drawn) [Compound 50, 2-nitro-7-({[4′-(trifluoromethoxy)[1,1′-biphenyl]-3-yl]methoxy}methyl)-6,7-dihydro-5H-imidazo[2,1-b][1,3]oxazine] | 0.24 (≈ 0.108 µg/mL) | 0.041 (≈ 0.0912 µM) | 0.15 (≈ 0.334 µM) | 117 to 119 | 6.3 (≈ 14 µM) | 5.1 (≈ 2.29 µg/mL) | > 128 | – | – | – | – |
| O=[N+]([O-])c1cn2c(n1)OC(COCc1ccc(-c3ccc(OC(F)(F)F)cc3)cc1)CC2 (stereo not drawn) [Compound 51, 2-nitro-7-({[4′-(trifluoromethoxy)[1,1′-biphenyl]-4-yl]methoxy}methyl)-6,7-dihydro-5H-imidazo[2,1-b][1,3]oxazine] | 0.055 (≈ 0.0247 µg/mL) | 0.046 (≈ 0.102 µM) | 0.17 (≈ 0.378 µM) | 159 to 161 | 15 (≈ 33.4 µM) | 1.5 (≈ 0.674 µg/mL) | > 128 | – | – | – | – |
| CC1(COCc2ccc(OCc3ccccc3)cc2)CCn2cc([N+](=O)[O-])nc2O1 (stereo not drawn) [Compound 54, 7-({[4-(benzyloxy)benzyl]oxy}methyl)-7-methyl-2-nitro-6,7-dihydro-5H-imidazo[2,1-b][1,3]oxazine] | 0.2 (≈ 0.0819 µg/mL) | 0.047 (≈ 0.115 µM) | 0.095 (≈ 0.232 µM) | 109 to 111 | 0.74 (≈ 1.81 µM) | 1.4 (≈ 0.573 µg/mL) | > 128 | – | – | – | – |
| O=[N+]([O-])c1cn2c(n1)OCC(COCc1cccc(OC(F)(F)F)c1)C2 (stereo not drawn) [Compound 71, 2-nitro-6-({[3-(trifluoromethoxy)benzyl]oxy}methyl)-6,7-dihydro-5H-imidazo[2,1-b][1,3]oxazine] | 0.33 (≈ 0.123 µg/mL) | 0.2 (≈ 0.536 µM) | 0.65 (≈ 1.74 µM) | 60 to 61 | 0.56 (≈ 1.5 µM) | 15 (≈ 5.6 µg/mL) | > 128 | – | – | – | – |
| O=[N+]([O-])c1cn2c(n1)OCC(COCc1cccc(-c3ccc(OC(F)(F)F)cc3)c1)C2 (stereo not drawn) [Compound 74, 2-nitro-6-({[4′-(trifluoromethoxy)[1,1′-biphenyl]-3-yl]methoxy}methyl)-6,7-dihydro-5H-imidazo[2,1-b][1,3]oxazine] | 0.22 (≈ 0.0989 µg/mL) | 0.16 (≈ 0.356 µM) | 0.54 (≈ 1.2 µM) | 78 to 80 | 0.94 (≈ 2.09 µM) | 2.9 (≈ 1.3 µg/mL) | > 128 | – | – | – | – |
| O=[N+]([O-])c1cn2c(n1)OCC(COCc1ccc(-c3ccc(OC(F)(F)F)cc3)cc1)C2 (stereo not drawn) [Compound 75, 2-nitro-6-({[4′-(trifluoromethoxy) [1,1′-biphenyl]-4-yl]methoxy}methyl)-6,7-dihydro-5H-imidazo[2,1-b][1,3]oxazine] | 0.3 (≈ 0.135 µg/mL) | 0.2 (≈ 0.445 µM) | 0.67 (≈ 1.49 µM) | 135 to 138 | 0.47 (≈ 1.05 µM) | > 128 | – | – | > 128 | – | – |
| O=[N+]([O-])c1cn2c(n1)OC[C@@H](OCc1ccc(OC(F)(F)F)cc1)C2 [PA-824, reference compound] | – | – | – | – | – | – | – | 1.00 | – | 2.5-3 log | 82 |
